Blank lines part the entries; values can stand above or below the molecule they belong to.
Assays:
[1] = target: Glutamate receptor ionotropic AMPA (Homo sapiens) (UniProt P48058+P42263+P42262+P42261); test: (§1) Inhibition of Ionotropic glutamate receptor AMPA binding to human hippocampal homogenates at concentration of 5-7 uM; assay type: tissue-based; settings: Hippocampus
[2] = target: T1, Glutamate receptor ionotropic AMPA (Homo sapiens, UniProt P42261+P42262+P42263+P48058); test: Inhibition of Ionotropic glutamate receptor AMPA binding to human hippocampal homogenates; assay type: tissue-based, Hippocampus
[3] = Inhibition of [3H]-kainic acid binding to kainate receptor at a concentration of 10 uM
[4] = Inhibition of [3H]-CGS 19755 binding to NMDA receptor at a concentration of 10 uM
[5] = Ability to antagonize AMPA-induced responses in frog oocytes; assay type: functional, cell-based; settings: oocyte
[6] = target: T1, Glutamate receptor ionotropic AMPA; test: as §1; assay type: tissue-based, Hippocampus
[7] = Ability to antagonize kainate-induced responses in frog oocyte; assay type: functional

Compound: Oc1[nH]c(-c2ccncc2)nc2nnnc1-2
pA2 [5]: 6.08 | IC50 [6]: 1.8 µM | inhibition at 10 µM [3]: 37% | pA2 [7]: 6.2 | inhibition at 10 µM [4]: 17%

Compound: Cc1nc(O)c2c[nH]nc2n1
inhibition [1]: < 5%

Compound: Oc1[nH]c(-c2ccncc2)nc2ncnc1-2
IC50 [2]: 1.9 µM

Compound: O=c1[nH]c2cc([N+](=O)[O-])c([N+](=O)[O-])cc2[nH]c1=O [DNQX]
IC50 [6]: 0.28 µM

Compound: Nc1[nH]c(-c2ccncc2)nc2nnnc1-2
inhibition [1]: < 5%

Now from value to molecule, other results behind:

inhibition [1]: < 5%
Compound: Oc1nc(-c2ccncc2)nc2c(C3CCCC3)n[nH]c12

IC50 [2]: 2.1 µM
Compound: Oc1nc(-c2ccncc2)nc2c1ncn2C1CCCC1
inhibition at 10 µM [3]: 15% | inhibition at 10 µM [4]: 25%

inhibition [1]: < 5%
Compound: Nc1[nH]c(-c2ccncc2)nc2ncnc1-2

inhibition [1]: < 5%
Compound: O=c1[nH]c(-c2ccncc2)nc2c1cnn2C1CCCC1

— ChEMBL document CHEMBL1128237, “6-(4-pyridinyl)-1H-1,2,3-triazolo[4,5-d]-pyrimidin-4(5H)-one: a structurally novel competitive AMPA receptor antagonist” (J Med Chem, 1995)
